Assay results from PubChem BioAssay AID270 (DTP/NCI, 2004).
Inconclusive results are not listed.

System: BDF1 mice, s.c. Lewis lung carcinoma, T/C %
Test: NCI In Vivo Anticancer Drug Screen. Data for tumor model Lewis Lung Carcinoma (subcutaneous) in B6D2F1 (BDF1) mice
Outline: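 Tumor-bearing mice were treated with test compound, and either survival or tumor size was recorded. Values are the treated-group measurement divided by that of the vehicle-treated control group.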

[1] = endpoint: mean tumor weight, dose: 50.0 mg/kg/injection, schedule: Q01DX011 (ip), vehicle: saline, higher = larger tumour

Q: What does the source list for `CCCCn1cnc2c(SC)ncnc21`?
A: T/C (endpoint: median survival time, dose: 25.0 mg/kg/injection, schedule: Q01DX009 (ip), vehicle: saline with Tween-80, higher = longer survival): 89 % of control; T/C (endpoint: median survival time, dose: 50.0 mg/kg/injection, schedule: Q01DX009 (ip), vehicle: saline with Tween-80, higher = longer survival): 94 % of control; T/C (endpoint: median survival time, dose: 100.0 mg/kg/injection, schedule: Q01DX009 (ip), vehicle: saline with Tween-80, higher = longer survival): 94 % of control

Q: With `CC(=O)CC(C)(C)N` as the molecule, how does the T/C (endpoint: mean tumor weight, dose: 15.0 mg/kg/injection, schedule: Q01DX011 (ip), vehicle: saline, higher = larger tumour) read?
A: Its T/C is 118 % of control.

Q: What about the T/C (endpoint: mean tumor weight, dose: 33.0 mg/kg/injection, schedule: Q01DX011 (ip), vehicle: saline, higher = larger tumour) of the same molecule?
A: Its T/C is 101 % of control.

Q: What about the T/C (endpoint: mean tumor weight, dose: 50.0 mg/kg/injection, schedule: Q01DX011 (ip), vehicle: methylcellulose (MC), higher = larger tumour) of the same molecule?
A: Its T/C is 50 % of control.

Q: And the T/C [1]?
A: The T/C was 120 % of control.

Q: What about the T/C (endpoint: mean tumor weight, dose: 75.0 mg/kg/injection, schedule: Q01DX011 (ip), vehicle: methylcellulose (MC), higher = larger tumour) of the same molecule?
A: Its T/C is 91 % of control.

Q: What about the T/C (endpoint: mean tumor weight, dose: 100.0 mg/kg/injection, schedule: Q01DX011 (ip), vehicle: methylcellulose (MC), higher = larger tumour) of the same molecule?
A: The T/C was 30 % of control.

Q: With `c1cc2n(n1)CCN2` as the molecule, how does the T/C (endpoint: mean tumor weight (est.), dose: 50.0 mg/kg/injection, schedule: Q01DX009 (ip), vehicle: saline, higher = larger tumour) read?
A: The T/C was 56 % of control.

Q: What about the T/C (endpoint: mean tumor weight (est.), dose: 100.0 mg/kg/injection, schedule: Q01DX009 (ip), vehicle: saline, higher = larger tumour) of the same molecule?
A: The T/C was 37 % of control.

Q: What about the T/C (endpoint: mean tumor weight (est.), dose: 100.0 mg/kg/injection, schedule: Q04DX003 (ip), vehicle: saline, higher = larger tumour) of the same molecule?
A: The T/C was 70 % of control.

Q: What about the T/C (endpoint: mean tumor weight (est.), dose: 200.0 mg/kg/injection, schedule: Q01DX009 (ip), vehicle: saline, higher = larger tumour) of the same molecule?
A: Its T/C is 36 % of control.

Q: And the T/C (endpoint: mean tumor weight (est.), dose: 200.0 mg/kg/injection, schedule: Q04DX003 (ip), vehicle: saline, higher = larger tumour)?
A: Its T/C is 79 % of control.

Q: What about the T/C (endpoint: mean tumor weight (est.), dose: 400.0 mg/kg/injection, schedule: Q04DX003 (ip), vehicle: saline, higher = larger tumour) of the same molecule?
A: The T/C was 57 % of control.

Q: What about the T/C (endpoint: mean tumor weight, dose: 25.0 mg/kg/injection, schedule: Q01DX011 (ip), vehicle: saline, higher = larger tumour) of the same molecule?
A: The T/C was 97 % of control.

Q: What about the T/C [1] of the same molecule?
A: Its T/C is 84 % of control.

Q: What about the T/C (endpoint: mean tumor weight, dose: 100.0 mg/kg/injection, schedule: Q01DX011 (ip), vehicle: saline, higher = larger tumour) of the same molecule?
A: Its T/C is 82 % of control.

Q: And the T/C (endpoint: mean tumor weight, dose: 200.0 mg/kg/injection, schedule: Q01DX011 (ip), vehicle: saline, higher = larger tumour)?
A: Its T/C is 7 % of control.

Q: What about the T/C (endpoint: median survival time, dose: 50.0 mg/kg/injection, schedule: Q01DX009 (ip), vehicle: saline, higher = longer survival) of the same molecule?
A: The T/C was 122 % of control.

Q: What about the T/C (endpoint: median survival time, dose: 100.0 mg/kg/injection, schedule: Q01DX009 (ip), vehicle: saline, higher = longer survival) of the same molecule?
A: Its T/C is 100 % of control.

Q: And the T/C (endpoint: median survival time, dose: 100.0 mg/kg/injection, schedule: Q04DX003 (ip), vehicle: saline, higher = longer survival)?
A: Its T/C is 102 % of control.

Q: And the T/C (endpoint: median survival time, dose: 200.0 mg/kg/injection, schedule: Q01DX009 (ip), vehicle: saline, higher = longer survival)?
A: The T/C was 100 % of control.

Q: And the T/C (endpoint: median survival time, dose: 400.0 mg/kg/injection, schedule: Q04DX003 (ip), vehicle: saline, higher = longer survival)?
A: The T/C was 88 % of control.

Q: With `CC(C)=CCC/C(C)=C/C=O` as the molecule, how does the T/C (endpoint: mean tumor weight, dose: 50.0 mg/kg/injection, schedule: Q01DX010 (ip), vehicle: saline, higher = larger tumour) read?
A: Its T/C is 84 % of control.

Q: And the T/C (endpoint: mean tumor weight, dose: 100.0 mg/kg/injection, schedule: Q01DX010 (ip), vehicle: saline, higher = larger tumour)?
A: The T/C was 61 % of control.

Q: Which T/C (endpoint: median survival time, dose: 10.0 mg/kg/injection, schedule: Q01DX009 (ip), vehicle: saline, higher = longer survival) does the source give for `CCN=C=NCCCN(C)C` here?
A: Its T/C is 106 % of control.

Q: What about the T/C (endpoint: median survival time, dose: 20.0 mg/kg/injection, schedule: Q01DX009 (ip), vehicle: saline, higher = longer survival) of the same molecule?
A: Its T/C is 107 % of control.

Q: And the T/C (endpoint: median survival time, dose: 40.0 mg/kg/injection, schedule: Q01DX009 (ip), vehicle: saline, higher = longer survival)?
A: Its T/C is 93 % of control.

Q: And the T/C (endpoint: median survival time, dose: 80.0 mg/kg/injection, schedule: Q01DX009 (ip), vehicle: saline, higher = longer survival)?
A: The T/C was 96 % of control.

Q: How did the T/C (endpoint: median survival time, dose: 0.25 mg/kg/injection, schedule: Q01DX009 (ip), vehicle: saline, higher = longer survival) turn out when `COc1ccc(CC2C(=O)NC(C)C(=O)N(C)C3C(=O)N(C)C(Cc4ccc(O)c(c4)Oc4ccc(cc4)C3O)C(=O)NC(C)C(=O)NC(C)C(=O)N2C)cc1` (configuration not stated) was run?
A: The T/C was 96 % of control.

Q: And the T/C (endpoint: median survival time, dose: 0.5 mg/kg/injection, schedule: Q01DX009 (ip), vehicle: saline, higher = longer survival)?
A: Its T/C is 97 % of control.

Q: And the T/C (endpoint: median survival time, dose: 1.0 mg/kg/injection, schedule: Q01DX009 (ip), vehicle: saline, higher = longer survival)?
A: Its T/C is 113 % of control.

Q: And the T/C (endpoint: median survival time, dose: 2.0 mg/kg/injection, schedule: Q01DX009 (ip), vehicle: saline, higher = longer survival)?
A: Its T/C is 87 % of control.

Q: With `COc1cc(OC)c(OC)cc1/C=C\c1ccnc2ccccc12` as the molecule, how does the T/C (endpoint: median survival time, dose: 50.0 mg/kg/injection, schedule: Q01DX009 (ip), vehicle: Klucel (hydroxypropylcellulose) (HPC), higher = longer survival) read?
A: Its T/C is 94 % of control.

Q: What about the T/C (endpoint: median survival time, dose: 100.0 mg/kg/injection, schedule: Q01DX009 (ip), vehicle: Klucel (hydroxypropylcellulose) (HPC), higher = longer survival) of the same molecule?
A: The T/C was 93 % of control.

Q: What about the T/C (endpoint: median survival time, dose: 400.0 mg/kg/injection, schedule: Q01DX009 (ip), vehicle: Klucel (hydroxypropylcellulose) (HPC), higher = longer survival) of the same molecule?
A: Its T/C is 97 % of control.
